# Literature values as cited in article PMC5689474 (Amino acids, 2010).
# Assays:
# [1] = biological target: human δ-opioid receptor (Homo sapiens, UniProt P41143); details: read-out: Binding Kiδ; [3H]DPDPE; ±SEM; ref Lipkowski et al. (1999)
# [2] = biological target: rat μ-opioid receptor (Rattus norvegicus, UniProt P33535); details: read-out: Binding Kiμ; [3H]DAMGO; ±SEM; ref Lipkowski et al. (1999)
# [3] = biological target: Mouse vas deferens (δ-opioid receptors); details: read-out: Functional bioactivity MVD (IC50); ±SEM; ref Lipkowski et al. (1999)
# [4] = test system: δ- and μ-opioid receptors; details: words; ref Lipkowski et al. 1987; Horan et al. 1993
# [5] = after i.c.v. and i.t. administration; ref Lipkowski et al. 1987; Horan et al. 1993
# [6] = ref Horan et al. 1993; Yamazaki et al. 2001
# Chain of human δ-opioid receptor (P41143 whole entry): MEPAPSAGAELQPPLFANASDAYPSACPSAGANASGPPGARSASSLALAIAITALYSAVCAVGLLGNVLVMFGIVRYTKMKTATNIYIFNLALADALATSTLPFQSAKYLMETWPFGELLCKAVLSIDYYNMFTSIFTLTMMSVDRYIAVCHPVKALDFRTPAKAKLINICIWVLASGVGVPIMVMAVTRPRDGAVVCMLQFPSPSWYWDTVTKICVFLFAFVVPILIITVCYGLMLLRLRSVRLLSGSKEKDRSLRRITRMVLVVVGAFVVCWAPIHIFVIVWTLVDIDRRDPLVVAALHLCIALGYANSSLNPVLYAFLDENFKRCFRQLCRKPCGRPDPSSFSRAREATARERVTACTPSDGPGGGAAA
# Chain of rat μ-opioid receptor (P33535 whole entry): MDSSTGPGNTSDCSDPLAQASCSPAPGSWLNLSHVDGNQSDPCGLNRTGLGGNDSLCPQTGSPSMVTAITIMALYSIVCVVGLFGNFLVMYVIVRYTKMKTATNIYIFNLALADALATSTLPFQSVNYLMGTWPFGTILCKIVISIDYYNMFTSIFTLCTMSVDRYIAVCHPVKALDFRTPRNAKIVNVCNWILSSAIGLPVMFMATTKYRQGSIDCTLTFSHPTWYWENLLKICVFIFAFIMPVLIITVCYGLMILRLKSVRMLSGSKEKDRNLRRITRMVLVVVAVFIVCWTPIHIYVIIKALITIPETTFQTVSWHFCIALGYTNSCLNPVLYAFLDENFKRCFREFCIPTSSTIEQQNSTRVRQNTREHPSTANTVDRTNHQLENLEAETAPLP
substance,measurement,setting,value
Tyr-D-Ala-Gly-Phe-NH-NH\-Phe\-Gly\-D-Ala\-Tyr [Bph],Ki,[1],2.6 ± 0.4 nM
same,Ki,[2],1.4 ± 0.2 nM
same,IC50,[3],27 ± 1.5 nM
same,affinity for both δ- and μ-receptors,[4],highly affinity for both δ- and μ-receptors
same,potency compared with morphine,[5],significantly higher than morphine
same,physical dependence compared with morphine,[6],less physical dependence than morphine
